≈ marks a conversion by molar mass, not a printed value. Where two headings read alike, the source gives them in different places.
Tests used:
Experiment in all cases: Antibiotic resistance profile of clinical isolate (Table S1)
[1] = test system: E. coli 3140; assay type: cell-based, Escherichia coli; conditions: for MIC: Escherichia coli
Description: (§1) Each strain was grown in Mueller Hinton Broth (MH Broth), and 5 × 10^5 CFU/mL was used to evaluate antibacterial activity. Clinical carbapenem-resistant K. pneumoniae and E. coli isolates were collected at the AOU of Virology and Microbiology of the University of Campania “Luigi Vanvitelli”. […]
(§2) Table S1. Antibiotic resistance profile of K. pneumoniae and E. coli clinical isolates . MIC: Minimum Inhibitory
(§3) Concentration was expressed in µg/mL; S: Sensible; I: Intermediate; R: Resistant.
(§4) Antibiotic Resistance Profile of the Clinical Isolated Bacteria
(§5) Antibiotics MIC (µg/mL) Interpretation […]

[2] = test system: E. coli 2267; assay type: cell-based, Escherichia coli; conditions: Table S1, E. coli 2267; for MIC: Escherichia coli, read-out: MIC
Description: as §1, §2, §3, §4, §5

[3] = test system: E. coli 1376; assay type: cell-based, Escherichia coli; conditions: for MIC: Escherichia coli
Description: as §1, §2, §3, §4, §5

[4] = test system: E. coli 716; assay type: cell-based, Escherichia coli; conditions: for MIC: Escherichia coli
Description: as §1, §2, §3, §4, §5

[5] = test system: E. coli 1441; assay type: cell-based, Escherichia coli; conditions: for MIC: Escherichia coli
Description: as §1, §2, §3, §4, §5

[6] = test system: K. pneumoniae 1711; assay type: cell-based, Klebsiella pneumoniae; conditions: Table S1, K. pneumoniae 1711; for MIC: Klebsiella pneumoniae, read-out: MIC
Description: as §1, §2, §3, §4, §5

[7] = test system: K. pneumoniae 1745; assay type: cell-based, Klebsiella pneumoniae; conditions: Table S1, K. pneumoniae 1745; for MIC: Klebsiella pneumoniae, read-out: MIC
Description: as §1, §2, §3, §4, §5

[8] = test system: K. pneumoniae 311; assay type: cell-based, Klebsiella pneumoniae; conditions: for MIC: Klebsiella pneumoniae
Description: as §1, §2, §3, §4, §5

[9] = test system: K. pneumoniae 1746; assay type: cell-based, Klebsiella pneumoniae
Description: as §1, §2, §3, §4, §5

Compound | MIC [1]; 3140 [µg/mL] | Interpretation ([1]; Table S1, E. coli 3140) | MIC [2] [µg/mL] | Interpretation [2] | MIC [3]; 1376 [µg/mL] | Interpretation ([3]; Table S1, E. coli 1376) | MIC [4]; 716 [µg/mL] | Interpretation ([4]; Table S1, E. coli 716) | MIC [5]; 1441 [µg/mL] | Interpretation ([5]; Table S1, E. coli 1441) | MIC [6] [µg/mL] | Interpretation [6] | MIC [7] [µg/mL] | Interpretation [7] | Interpretation ([8]; Table S1, K. pneumoniae 311) | Interpretation ([9]; Table S1, K. pneumoniae 1746) | further results
NC[C@H]1O[C@H](O[C@H]2[C@H](O)[C@@H](O[C@H]3O[C@H](CO)[C@@H](O)[C@H](N)[C@H]3O)[C@H](N)C[C@@H]2N)[C@H](N)C[C@@H]1O [Tobramycin] | ≤ 1 | S | ≤ 1 | S | > 4 | R | ≤ 1 | S | ≤ 1 | S | > 4 | R | > 4 | R | R | R | MIC [8]; 311: > 4 µg/mL; MIC ([9]; Klebsiella pneumoniae, 1746): > 4 µg/mL
C[C@@H]1O[C@@H]1P(=O)(O)O [Fosfomycin] | – | – | ≤ 16 | S | > 64 | R | ≤ 16 | S | ≤ 16 | S | 32 (≈ 232 µM) | S | ≤ 16 | S | S | S | MIC [8]; 311: ≤ 16 µg/mL; MIC ([9]; Klebsiella pneumoniae, 1746): ≤ 16 µg/mL
Colistin | – | – | – | – | – | – | – | – | – | – | – | – | – | – | – | S | MIC ([9]; Table S1, K. pneumoniae 1746): 0.25 µg/mL
CO/N=C(\C(=O)N[C@@H]1C(=O)N2C(C(=O)[O-])=C(C[N+]3(C)CCCC3)CS[C@H]12)c1csc(N)n1 [Cefepime] | – | – | – | R | – | – | – | – | – | – | – | R | – | R | – | – | –
CCn1cc(C(=O)O)c(=O)c2cc(F)c(N3CCNCC3)cc21 [Norfloxacin] | ≤ 0.5 | S | – | – | – | – | – | – | – | – | – | – | – | – | – | – | –
CC(C)(O/N=C(\C(=O)N[C@@H]1C(=O)N2C(C(=O)[O-])=C(C[N+]3(CCNC(=O)c4ccc(O)c(O)c4Cl)CCCC3)CS[C@H]12)c1csc(N)n1)C(=O)O [Cefiderocol] | – | – | – | – | – | – | – | – | – | – | – | I | – | – | – | S | –
C[C@H]1[C@H](NC(=O)/C(=N\OC(C)(C)C(=O)O)c2csc(N)n2)C(=O)N1S(=O)(=O)O [Aztreonam] | – | – | – | R | – | – | – | – | – | – | – | R | – | R | – | – | –
CO[C@@]1(NC(=O)C(C(=O)O)c2ccsc2)C(=O)N2[C@@H](C(=O)O)C(C)(C)S[C@@H]21 (stereo partly shown) [Temocillin] | – | R | > 32 | R | – | R | – | R | – | S | > 32 | R | > 32 | R | R | – | MIC ([1]; Table S1, E. coli 3140, read-out: MIC): > 32 µg/mL; MIC ([3]; Table S1, E. coli 1376, read-out: MIC): > 32 µg/mL; MIC ([4]; Table S1, E. coli 716, read-out: MIC): > 32 µg/mL; MIC ([5]; Table S1, E. coli 1441, read-out: MIC): 8 µg/mL (≈ 19.3 µM); MIC ([8]; Table S1, K. pneumoniae 311, read-out: MIC): > 32 µg/mL
CN(C)c1cc(NC(=O)CNC(C)(C)C)c(O)c2c1C[C@H]1C[C@H]3[C@H](N(C)C)C(O)=C(C(N)=O)C(=O)[C@@]3(O)C(O)=C1C2=O [Tigecycline] | – | – | > 2 | R | ≤ 0.5 | S | > 2 | R | ≤ 0.5 | S | – | – | – | – | – | – | –
O=C1CN(/N=C/c2ccc([N+](=O)[O-])o2)C(=O)N1 [Nitrofurantoin] | ≤ 16 | S | – | – | – | – | – | – | – | – | – | – | – | – | – | – | –
CO/N=C(\C(=O)N[C@@H]1C(=O)N2C(C(=O)O)=C(COC(N)=O)CS[C@H]12)c1ccco1 [Cefuroxime] | > 8 | R | > 8 | R | > 8 | R | > 8 | R | > 8 | R | > 8 | R | > 8 | R | R | – | MIC [8]; 311: > 8 µg/mL

From article PMC12024264, “Frog Skin Peptides Hylin-a1, AR-23, and RV-23: Promising Tools Against Carbapenem-Resistant Escherichia coli and Klebsiella pneumoniae Infections” (Antibiotics, 2025)
